According to ChEMBL document CHEMBL3112510, “Optimization, pharmacophore modeling and 3D-QSAR studies of sipholanes as breast cancer migration and proliferation inhibitors” (Eur J Med Chem, 2014):

Assays:
MDA-MB-231 [1] = assay: Antiproliferative activity against human MDA-MB-231 cells after 72 hrs by MTT assay; conditions: MDA-MB-231, 72 h
MDA-MB-231 [2] = assay: Antimigratory activity in human MDA-MB-231 cells after 24 hrs by wound healing assay; conditions: MDA-MB-231, 24 h
MCF7 = assay: cells; conditions: Homo sapiens, MCF7, 72 h

SMILES	IC50 (MDA-MB-231 [1])	IC50 (MDA-MB-231 [2])	IC50 (MDA-MB-231 [2]; read-out: pIC50 (converted))	IC50 (MCF7)
CC(=O)O[C@H]1CC[C@]2(C)[C@H](CC[C@@](C)(O)[C@H]2CC[C@@H]2C(C)=CC[C@@H]3C(C)=CC[C@@H]3C2(C)C)OC1(C)C	39.2 µM	16 µM	16 µM	43.5 µM
CC1=CC[C@H]2[C@@H]1CC=C(C)[C@@H](CCC1=C(C)CC[C@@H]3OC(C)(C)[C@@H](O)CC[C@@]13C)C2(C)C	> 50 µM	46.7 µM	46.7 µM	> 50 µM
CC1=CC[C@H]2[C@H](CC[C@]2(C)O)C(C)(C)[C@@H]1CC[C@H]1[C@]2(C)CC[C@H](OC(=O)c3ccncc3)C(C)(C)O[C@H]2CC[C@@]1(C)O	18 µM	10.6 µM	10.6 µM	25.3 µM
CC1=CCC2C(CC[C@@]2(C)O)C(C)(C)C1CC[C@@H]1[C@@]2(C)CC[C@@H](O)C(C)(C)O[C@@H]2CC[C@]1(C)O (stereo not given in full) [SIPHOLENOL A]	> 50 µM	37.5 µM	37.5 µM	44.5 µM
C=C(C)C(CC[C@@]1(C)C(CC[C@H]2[C@]3(C)CC[C@H](O)C(C)(C)O[C@H]3CC[C@@]2(C)O)=C(C)CC[C@H]1O)OO (stereo not given in full) [SIPHONELLINOL E]	> 50 µM	39 µM	39 µM	31.2 µM
CC1(C)O[C@H]2CC[C@@](C)(O)[C@@H](CC[C@H]3C(C)(C)[C@@]4(O)CC[C@](C)(O)[C@H]4C[C@H]4O[C@]43C)[C@]2(C)CCC1=O	> 50 µM	33 µM	33 µM	> 50 µM
CC1=CC[C@H]2[C@@H]([C@@H]1CC[C@H]1[C@]3(C)CC[C@H](O)C(C)(C)O[C@H]3CC[C@@]1(C)O)C(C)(C)CC[C@]2(C)O	> 50 µM	42 µM	42 µM	> 50 µM
CC1=CC[C@H]2[C@@H]1CC=C(C)[C@@H](CC[C@H]1[C@]3(C)CC[C@H](O)C(C)(C)O[C@H]3CC[C@@]1(C)O)C2(C)C	> 50 µM	35.3 µM	35.3 µM	> 50 µM
CC1=CC[C@H]2[C@H](CC[C@]2(C)O)C(C)(C)[C@@H]1CC[C@@H]1[C@](C)(O)[C@H](O)C[C@@H]2OC(C)(C)[C@@H](O)CC[C@]21C	> 50 µM	> 50 µM	22.4 µM	> 50 µM
CC(=O)O[C@H]1CC[C@]2(C)[C@H](CC[C@@](C)(O)[C@H]2CC[C@@H]2C(C)=CC[C@H]3[C@H](CC[C@]3(C)O)C2(C)C)OC1(C)C	38 µM	16.8 µM	–	47.9 µM
C[C@H]1C(=O)C[C@H]2[C@H](CC[C@]2(C)O)C(C)(C)[C@@H]1CC[C@H]1[C@]2(C)CC[C@H](O)C(C)(C)O[C@H]2CC[C@@]1(C)O	> 50 µM	47.5 µM	47.5 µM	> 50 µM
CC1=CC[C@H]2[C@H](CC[C@]2(C)O)C(C)(C)[C@@H]1CC[C@H]1[C@]2(C)CC[C@H](OC(=O)c3ccc(C)cc3)C(C)(C)O[C@H]2CC[C@@]1(C)O	33.4 µM	11.8 µM	11.8 µM	> 50 µM
CC1=C(CC[C@H]2[C@]3(C)CC[C@H](O)C(C)(C)O[C@H]3CC[C@@]2(C)O)[C@](C)(C/C=C/C(C)(C)OO)[C@H](O)CC1	> 50 µM	> 50 µM	54 µM	27.4 µM
CC1=CC[C@H]2[C@H](CC[C@]2(C)O)C(C)(C)[C@@H]1CC[C@H]1[C@]2(C)CC[C@@H](O)O[C@H]2CC[C@@]1(C)O	> 50 µM	48 µM	48 µM	> 50 µM
CC1(C)O[C@H]2CC[C@@](C)(O)[C@@H](CC[C@H]3C(C)(C)[C@@]4(O)CC[C@](C)(O)[C@H]4C[C@H]4O[C@]43C)[C@]2(C)CC[C@@H]1O	> 50 µM	> 50 µM	36.2 µM	> 50 µM
CC1(C)O[C@H]2CC[C@@](C)(O)[C@@H](CC[C@@H]3C(CO)=CC[C@H]4[C@H](CC[C@]4(C)O)C3(C)C)[C@]2(C)CCC1=O	> 50 µM	> 50 µM	77.8 µM	> 50 µM
CC1=CC[C@H]2[C@@H]1CC=C(C)[C@@H](CC[C@H]1[C@]3(C)CC[C@H](OC(=O)c4ccccc4)C(C)(C)O[C@H]3CC[C@@]1(C)O)C2(C)C	18.4 µM	7.2 µM	7.19 µM	23.1 µM
CC1=CC[C@H]2[C@H](CC[C@]2(C)O)C(C)(C)[C@@H]1CC[C@H]1[C@]2(C)CC[C@H](OCc3ccccc3)C(C)(C)O[C@H]2CC[C@@]1(C)O	29.1 µM	12.2 µM	12.2 µM	> 50 µM
CC1=CC[C@H]2[C@H](CC[C@]2(C)O)C(C)(C)[C@@H]1CC[C@H]1[C@]2(C)CC/C(=N/O)C(C)(C)O[C@H]2CC[C@@]1(C)O	42.7 µM	> 50 µM	52.7 µM	46.8 µM
CC1=CC[C@H]2[C@@H]1CC=C(C)[C@@H](CC[C@H]1[C@]3(C)CC[C@H](OC(=O)c4ccc(Cl)cc4)C(C)(C)O[C@H]3CC[C@@]1(C)O)C2(C)C	12.7 µM	5.9 µM	–	22 µM
CC1=CC[C@H]2[C@H](CC[C@]2(C)O)C(C)(C)[C@@H]1CC[C@H]1[C@]2(C)CC[C@H](OC(=O)c3ccc(Cl)cc3)C(C)(C)O[C@H]2CC[C@@]1(C)O	10.3 µM	5.3 µM	5.3 µM	24.1 µM

More lines, now with the values ahead:

IC50 (MDA-MB-231 [1])	IC50 (MDA-MB-231 [2])	IC50 (MDA-MB-231 [2]; read-out: pIC50 (converted))	IC50 (MCF7)	SMILES
27.4 µM	28.5 µM	28.5 µM	25.6 µM	CC1=CC[C@H]2[C@H](CC[C@]2(C)O)C(C)(C)[C@@H]1CC[C@H]1[C@]2(C)CC/C(=N/OC(=O)c3ccccc3)C(C)(C)O[C@H]2CC[C@@]1(C)O
40.3 µM	13.9 µM	13.9 µM	24.5 µM	CC1=CC[C@H]2[C@H](CC[C@]2(C)O)C(C)(C)[C@@H]1CC[C@H]1[C@]2(C)CC[C@H](OC(=O)NCc3ccccc3)C(C)(C)O[C@H]2CC[C@@]1(C)O
> 50 µM	38.3 µM	38.3 µM	> 50 µM	C[C@H]1C(=O)C[C@@H]2[C@@](C)(O)CC[C@]2(O)C(C)(C)[C@@H]1CC[C@H]1[C@]2(C)CCC(=O)C(C)(C)O[C@H]2CC[C@@]1(C)O
> 50 µM	> 50 µM	51.2 µM	> 50 µM	CC1(C)O[C@H]2CC[C@@](C)(O)[C@@H](CC[C@@H]3C(C=O)=CC[C@H]4[C@H](CC[C@]4(C)O)C3(C)C)[C@]2(C)CC[C@@H]1O
> 50 µM	45 µM	45 µM	39.8 µM	CC1=C(CC[C@H]2[C@]3(C)CC[C@H](O)C(C)(C)O[C@H]3CC[C@@]2(C)O)[C@@H]2[C@H](C[C@H]1C(=O)O)[C@@](C)(O)CCC2(C)C
26.2 µM	20.3 µM	20.3 µM	39.2 µM	CC(=O)O[C@H]1CC[C@]2(C)[C@H](CC[C@@](C)(O)[C@H]2CC[C@@H]2C(C)=CC[C@H]3[C@H](CC[C@]3(C)OC(C)=O)C2(C)C)OC1(C)C
32.7 µM	12.3 µM	12.3 µM	> 50 µM	CC1=CC[C@H]2[C@@H]1CC=C(C)[C@@H](CC[C@H]1[C@]3(C)CC[C@H](OC(=O)c4ccc(C)cc4)C(C)(C)O[C@H]3CC[C@@]1(C)O)C2(C)C
> 50 µM	42.6 µM	42.6 µM	> 50 µM	CC1(C)O[C@H]2CC[C@@](C)(O)[C@@H](CC[C@@H]3C(C=O)=CC[C@H]4[C@H](CC[C@]4(C)O)C3(C)C)[C@]2(C)CCC1=O
> 50 µM	28.1 µM	28.1 µM	> 50 µM	CC1=CCC2C(CC[C@@]2(C)O)C(C)(C)C1CC[C@@H]1[C@@]2(C)CCC(=O)C(C)(C)O[C@@H]2CC[C@]1(C)O (stereo not given in full) [SIPHOLENONE A]
29.6 µM	21 µM	–	> 50 µM	CC1=CC[C@H]2[C@@H]1CC=C(C)[C@@H](CC[C@H]1[C@]3(C)CC[C@H](OC(=O)CCC(=O)O)C(C)(C)O[C@H]3CC[C@@]1(C)O)C2(C)C
> 50 µM	> 50 µM	59 µM	21.8 µM	CC1=C(CC[C@H]2[C@]3(C)CC[C@H](O)C(C)(C)O[C@H]3CC[C@@]2(C)O)[C@](C)(C/C=C/C(C)(C)O)[C@H](O)CC1
35.7 µM	13.4 µM	13.4 µM	> 50 µM	CC1=CC[C@H]2[C@@H]1CC=C(C)[C@@H](CC[C@H]1[C@]3(C)CC[C@H](OCc4ccccc4)C(C)(C)O[C@H]3CC[C@@]1(C)O)C2(C)C
> 50 µM	28 µM	28 µM	> 50 µM	C[C@@H]1CC[C@H]2[C@@H](/C1=C/C[C@H]1[C@]3(C)CCC(=O)C(C)(C)O[C@H]3CC[C@@]1(C)O)C(C)(C)CC[C@]2(C)O
> 50 µM	> 50 µM	69 µM	> 50 µM	C[C@@H]1C(=O)C[C@H]2[C@@H](/C1=C/C[C@H]1[C@]3(C)CC[C@H](O)C(C)(C)O[C@H]3CC[C@@]1(C)O)C(C)(C)CC[C@]2(C)O
> 50 µM	> 50 µM	87.5 µM	> 50 µM	CC1(C)O[C@H]2CC[C@@](C)(O)[C@@H](CC[C@@H]3C(CO)=CC[C@H]4[C@H](CC[C@]4(C)O)C3(C)C)[C@]2(C)CC[C@@H]1O
> 50 µM	> 50 µM	84.9 µM	> 50 µM	CC1=C(CC[C@H]2[C@]3(C)CC[C@H](O)C(C)(C)O[C@H]3CC[C@@]2(C)O)[C@@H]2[C@H](CC1=O)[C@@](C)(O)CCC2(C)C
